The values below come from PubChem BioAssay (NCI).

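How tested: cells in 96-well plates exposed to compound for 48 hours at five concentrations. TGI denotes the concentration required for complete inhibition of growth.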 Bounds are passed on as bounds.

What all share (assay): inhibition of tumour cell growth, NCI panel, 48 h
Assay [1] concerns HOP-92 NSCLC.
Assay [2] relates to RPMI-8226 leukemia.
Assay [3] concerns SNB-75 CNS.
In assay [4] the test system is A549 NSCLC.
In assay [5] the test system is HOP-62 NSCLC.
The subject of assay [6] is NCI-H460 lung.
Assay [7] has as its system OVCAR-3 ovarian.
For assay [8], the system named is SR leukemia.
Assay [9] relates to SN12C renal.
Assay [10] deals with MOLT-4 leukemia.
For assay [11], the system named is UO-31 renal.
Assay [12] relates to HT29 colon.
Assay [13] concerns SNB-19 CNS.
The subject of assay [14] is CCRF-CEM leukemia.
Assay [15] deals with SF-295 CNS.
In assay [16] the test system is HL-60(TB) leukemia.
Assay [17] has as its system NCI/ADR-RES ovarian.
For assay [18], the system named is DU-145 prostate.
Assay [19] has as its system BT-549 breast.

As for `CCN(CC)CCNc1ccc2nnn3c4ccc(C)cc4c(=O)c1c23`, the TGI in assay [1] is 20.7 µM; in [2], 21.6 µM; in assay [3], 23.2 µM; in assay [4], 19.3 µM; in assay [5] it was 28.9 µM; in [6], 13.9 µM. For the same compound, the TGI turned out to be 29.9 µM in assay [7]; 13.1 µM in [8]; 22.3 µM in assay [9]; 12.2 µM in assay [10]; 22.2 µM in assay [11]; 16.1 µM in [12]. The TGI in assay [13] came out at 27.4 µM; in assay [14], 25.6 µM; in assay [15] it was 18 µM; in assay [16], 16.8 µM.
As to `O=c1ccn2n1Cc1ccccc1C2`, the TGI in [1], in [17], in assay [2], in assay [4], in assay [5] and in assay [6] was greater than 100 µM throughout. The TGI in [7], in assay [8], in assay [9], in assay [10], in [11] and in assay [18] was greater than 100 µM each time. Moreover, the TGI in assay [12], in assay [13], in [14], in assay [15] and in assay [16] was greater than 100 µM throughout.
On to `COc1cc(C=O)cc(/C=N/n2c3ccccc3c3ccccc32)c1O`, for which the TGI in [19] is 9.7 µM; in assay [1], 9.58 µM; in [2] it was 46.2 µM; in assay [3] it was 15.7 µM; in assay [4], greater than 100 µM; in assay [5], greater than 100 µM. Also, the TGI in assay [6] is greater than 100 µM; in assay [7], greater than 100 µM; in assay [8] it was greater than 100 µM; in assay [9] it was greater than 100 µM; in assay [10] it was 76.8 µM; in assay [11] it was greater than 100 µM. The TGI in assay [18] is greater than 100 µM; in assay [12], greater than 100 µM; in assay [13], greater than 100 µM; in assay [14], greater than 100 µM; in [15], 18.6 µM; in assay [16] it was greater than 100 µM.
Consider `S=c1nc(N2CCCCC2)c2cn[nH]c2[nH]1`, for which the TGI in assay [19], in [17], in [2], in assay [3], in assay [4] and in assay [5] was greater than 100 µM each time. Also, the TGI is greater than 100 µM in assay [6]; greater than 100 µM in [7]; 40.7 µM in assay [8]; greater than 100 µM in assay [9]; 77.9 µM in assay [11]; greater than 100 µM in [18]. The TGI is greater than 100 µM in assay [12]; greater than 100 µM in [13]; greater than 100 µM in [14]; greater than 100 µM in [15]; 69.9 µM in assay [16].
`Cc1ccc(NCC(=O)N2CC(=O)Nc3ccccc32)c(C)c1`: the TGI in assay [1], in assay [2], in assay [3], in assay [4], in assay [5] and in assay [6] was greater than 100 µM each time. Besides, the TGI in assay [7], in assay [8], in assay [9], in assay [10], in assay [11] and in assay [12] was greater than 100 µM throughout. Also, the TGI in [13], in assay [14], in [15] and in [16] was greater than 100 µM throughout.
Regarding `COc1ccc(/C=C2\CCC(CNc3ccc(S(N)(=O)=O)cc3)C2=O)cc1` (stereo not given), the TGI in [19] was 33.9 µM; in assay [1] it was 22.5 µM; in assay [17], greater than 100 µM; in [3], 76.2 µM; in assay [4] it was greater than 100 µM; in assay [5], greater than 85.6 µM. Also, the TGI in [6] is greater than 77.2 µM; in [7], 22.7 µM; in assay [9], 35.9 µM; in assay [10], greater than 44.2 µM; in [11], 12.2 µM; in assay [18], greater than 88.1 µM. For the same compound, the TGI was 25.9 µM in assay [12]; greater than 65.9 µM in [13]; 5.98 µM in [14]; greater than 100 µM in [15]; 7.73 µM in [16].
As to `NCCCOc1ccc([N+](=O)[O-])cc1Cl`, the TGI in assay [1], in assay [2], in assay [3], in assay [4], in [5] and in [6] was greater than 100 µM throughout. The TGI in assay [7], in assay [8], in [10], in [11], in [12] and in [13] was greater than 100 µM each time. The TGI in assay [14], in assay [15] and in [16] was greater than 100 µM in each case.
`O=C(O)c1cc(CC2Cc3cc4c(cc3C2=O)CCC4)cc2c1CCC2` (stereo not given): the TGI in [19], in assay [17], in assay [2], in assay [3], in [4] and in assay [5] was greater than 100 µM each time. The TGI in assay [6], in assay [7], in assay [8], in [9], in [10] and in assay [11] was greater than 100 µM in each case. Further, the TGI in [18], in assay [12], in assay [13], in assay [14], in assay [15] and in [16] was greater than 100 µM throughout.
Turning to `C/C(N=NS(=O)(=O)c1ccccc1)=C1\C=CC=CN1O`, the TGI in assay [1], in assay [2], in assay [3], in assay [4], in [5] and in assay [6] was greater than 100 µM throughout. The TGI in assay [7], in assay [8], in assay [9], in assay [10], in [11] and in assay [12] was greater than 100 µM throughout. Besides, the TGI in assay [13], in assay [14], in [15] and in [16] was greater than 100 µM throughout.
`BrC1=CCC23CC=C(Br)[C@H]4CC2(COC3)C[C@@H]1O4` (stereo not given in full): the TGI in assay [2] is greater than 100 µM; in [3], 41.6 µM; in assay [4] it was greater than 100 µM; in [5], greater than 100 µM; in assay [6], greater than 100 µM; in assay [7] it was greater than 100 µM. The TGI in [8] was greater than 100 µM; in [9], greater than 100 µM; in assay [10], 86 µM; in assay [11] it was 82.4 µM; in assay [13] it was greater than 100 µM; in assay [14], 79.5 µM. Moreover, the TGI was greater than 100 µM in assay [15] and 38.1 µM in assay [16].
For the compound `O=c1cc(-c2ccccc2)c2ccccc2[nH]1`, the TGI was 48.1 µM in assay [1]; greater than 100 µM in [2]; 46.5 µM in assay [3]; greater than 100 µM in assay [4]; greater than 100 µM in [5]; greater than 100 µM in assay [6]. The TGI is greater than 100 µM in [8]; greater than 100 µM in assay [9]; greater than 100 µM in assay [10]; 55.9 µM in assay [11]; greater than 100 µM in assay [12]; greater than 100 µM in assay [14]. Besides, the TGI in assay [15] and in assay [16] was greater than 100 µM throughout.
Regarding `CN1C2=C(CC3=C1CC(C)(C)CC3=O)C(=O)CC(C)(C)C2`, the TGI in [19], in [1], in [17], in assay [2], in assay [3] and in assay [4] was greater than 100 µM each time. Moreover, the TGI in assay [6], in assay [7], in assay [8], in [9], in assay [10] and in assay [11] was greater than 100 µM throughout. The TGI in [12], in assay [13], in assay [14] and in [16] was greater than 100 µM in each case.
For the compound `[N-]=[N+]=NC(CCl)c1cn([C@H]2C[C@H](O)[C@@H](CO)O2)c(=O)[nH]c1=O` (stereo not given in full), the TGI in assay [1], in assay [2], in assay [3], in assay [4], in assay [5] and in [6] was greater than 100 µM each time. Besides, the TGI in assay [7], in assay [8], in [9], in assay [10], in assay [11] and in [12] was greater than 100 µM throughout. The TGI in assay [13], in assay [14], in [15] and in assay [16] was greater than 100 µM throughout.
